# Test results: paper PMC6234229, “The role of loops B and C in determining the potentiation of GABAA receptors by midazolam” (Pharmacology Research & Perspectives, 2018)
# Assays:
# Format in all cases: cell-based
# α2β2γ2 GABAA receptor = molecular target: T1, α2β2γ2 GABAA receptor (Homo sapiens, UniProt P18507+P47869+P47870); test: GABA concentration-response assay, whole-cell patch clamp, HEK293T; details: GABA Hill fit
# T1 construct: expressed in transfected cells; host or cells: HEK293T
# Excerpt: (§1) Human (Homo sapiens) GABAA subunits (α1‐6, β2, γ2s) were subcloned into pcDNA3.1+ vectors with a cytomegalovirus (CMV) promoter. The hβ2 and hα3 sequences were humanized rat (Rattus norvegicus) cDNA with amino acid substitutions made to match the human protein sequence. The α1‐3, α5, β2, and γ2s subunits were a generous gift from Neil L. Harrison (Columbia University Medical Center, NY). The α4 subunit was obtained from GenScript (Piscataway, NJ), and the α6 subunit was a generous gift from Robert L. McDonald (Vanderbilt University, TN). All point mutations (listed in Figure 1C) were introduced using the QuikChange Lightening site‐directed mutagenesis kit (Agilent Technologies, Santa Clara, CA) according to the manufacturer's instructions and were confirmed by sequencing (Eurofins MWG Operon, Louisville, KY).
# (§2) Human embryonic kidney cells containing the SV40 T‐antigen (HEK293T) were acquired from American Type Culture Collection (ATCC®, Manassas, VA), catalogue number, CRL3216. HEK293T cells were maintained at 37°C and 5% CO2 in Eagle Minimum Essential Medium (MEM) supplemented with 5% fetal bovine serum (Atlanta Biologicals Inc., Flowery Branch, GA), 40 μM L‐glutamine, 100 U/mL penicillin and 0.1 mM streptomycin. Cells were passaged regularly when they reached 70% confluency using trypsin. Cells were not passaged more than 22 times. New cells were revived from frozen stocks at passage 2‐4. Cells used for in vitro electrophysiology experiments were grown on poly‐D‐lysine‐coated glass coverslips (No.2, VWR, Radnor, PA) and transfected with X‐tremeGENE (Roche Diagnostics, Indianapolis, IN) with the desired receptor subunit cDNAs at a 1:1:1 ratio to express αxβ2γ2s receptors (2 μg total cDNA) and with 0.5 μg green fluorescent protein (GFP) as an expression marker. The γ2s incorporation into receptors was tested with zinc inhibition assays regularly.24 Patch clamp experiments were performed on cells at 24‐72 hours post‐transfection. All experiments were performed at 22°C. Experiments consisted of at least five cells recorded per day from at least two transfections across 3‐4 days to control for cell health and transfection efficiency. At least three cells expressing wild‐type receptors were recorded on days that mutant receptors were tested to provide a time‐matched expression control. All reagents were purchased from Sigma‐Aldrich (St. Louis, MO) unless otherwise stated.
# (§3) Extracellular solution contained 161 mM NaCl, 3 mM KCl, 1 mM MgCl2, 1.5 mM CaCl2, 10 mM HEPES, and 6 mM D‐glucose, adjusted to pH 7.4 with NaOH (320‐330 mOsm). […] The perfusion system was controlled by protocols written in pClamp 9 (Molecular Devices, LLC., Sunnyvale, CA). Whole‐cell currents were recorded at ‐60 mV, filtered at 100 Hz and sampled at 200 Hz with a MultiClamp 700B amplifier (Molecular Devices, LLC) and DigiData 1322A (Molecular Devices, LLC) digitizer. […] Cells were recorded with the midazolam protocol no more than two times to avoid desensitization and incomplete washout or irreversible modulation.
# (§4) Recordings were analyzed using MATLAB (Math Works, Inc., Natick, MA). […] The maximum peak current, EC50 and Hill coefficient were estimated for assays from each cell. When Hill parameters are estimated from whole‐cell recordings, the changes in the parameters across receptor conditions can be ascribed to the following changes in receptor physiology. Changes in maximum current can be due to changes in the single‐channel conductance or the rate of desensitization. Changes in cell surface receptor expression can cause minor changes in maximum current, but are unlikely to occur in the time course of our experimental protocol. […] More often minor changes in the Hill coefficient are attributed to the altered homogeneity in the receptor population expressed by the HEK293T cell. For example, a shallower Hill coefficient could be caused by a shift in the population of receptors from mostly αβγ receptors to a combination of both αβ and αβγ receptors.
# [1] = molecular target: T2, α4(R100H)β2γ2 GABAA receptor (Homo sapiens, UniProt P18507+P47870+P48169, R135H); test: as above; details: GABA Hill fit
# T2 construct: expressed in transfected cells; host or cells: HEK293T
# Excerpt: as §1, §2, §3, §4
# α5β2γ2 GABAA receptor = molecular target: T3, α5β2γ2 GABAA receptor (Homo sapiens, UniProt P18507+P31644+P47870); test: as above; details: GABA Hill fit
# T3 construct: expressed in transfected cells; host or cells: HEK293T
# Excerpt: as §1, §2, §3, §4
# [2] = molecular target: T4, α2(H101R)β2γ2 GABAA receptor (Homo sapiens, UniProt P18507+P47869+P47870, H129R); test: as above; details: GABA Hill fit
# T4 construct: expressed in transfected cells; host or cells: HEK293T
# Excerpt: as §1, §2, §3, §4
# [3] = molecular target: T5, α1(H102R)β2γ2 GABAA receptor (Homo sapiens, UniProt P14867+P18507+P47870, H129R); test: as above; details: GABA Hill fit
# T5 construct: expressed in transfected cells; host or cells: HEK293T
# Excerpt: as §1, §2, §3, §4
# α1β2γ2 GABAA receptor = molecular target: T6, α1β2γ2 GABAA receptor (Homo sapiens, UniProt P14867+P18507+P47870); test: as above; details: GABA Hill fit
# T6 construct: expressed in transfected cells; host or cells: HEK293T
# Excerpt: as §1, §2, §3, §4
# [4] = molecular target: T7, α4(I204S)β2γ2 GABAA receptor (Homo sapiens, UniProt P18507+P47870+P48169, I239S); test: as above; details: GABA Hill fit
# T7 construct: expressed in transfected cells; host or cells: HEK293T
# Excerpt: as §1, §2, §3, §4
# [5] = molecular target: T8, α3(S230I)β2γ2 GABAA receptor (Homo sapiens, UniProt P18507+P34903+P47870, S258I); test: as above; details: GABA Hill fit
# T8 construct: expressed in transfected cells; host or cells: HEK293T
# Excerpt: as §1, §2, §3, §4
# [6] = molecular target: T9, α1(S206I)β2γ2 GABAA receptor (Homo sapiens, UniProt P14867+P18507+P47870, S233I); test: as above; details: GABA Hill fit
# T9 construct: expressed in transfected cells; host or cells: HEK293T
# Excerpt: as §1, §2, §3, §4
# [7] = molecular target: T10, α5(H105R)β2γ2 GABAA receptor (Homo sapiens, UniProt P18507+P31644+P47870, H136R); test: Midazolam potentiation of EC10 GABA currents, whole-cell patch clamp, HEK293T
# T10 construct: expressed in transfected cells; host or cells: HEK293T
# [8] = molecular target: T11, α2(T162P)β2γ2 GABAA receptor (Homo sapiens, UniProt P18507+P47869+P47870, T190P); test: as above
# T11 construct: expressed in transfected cells; host or cells: HEK293T
# T11 sequence (P47869 29-451 T190P): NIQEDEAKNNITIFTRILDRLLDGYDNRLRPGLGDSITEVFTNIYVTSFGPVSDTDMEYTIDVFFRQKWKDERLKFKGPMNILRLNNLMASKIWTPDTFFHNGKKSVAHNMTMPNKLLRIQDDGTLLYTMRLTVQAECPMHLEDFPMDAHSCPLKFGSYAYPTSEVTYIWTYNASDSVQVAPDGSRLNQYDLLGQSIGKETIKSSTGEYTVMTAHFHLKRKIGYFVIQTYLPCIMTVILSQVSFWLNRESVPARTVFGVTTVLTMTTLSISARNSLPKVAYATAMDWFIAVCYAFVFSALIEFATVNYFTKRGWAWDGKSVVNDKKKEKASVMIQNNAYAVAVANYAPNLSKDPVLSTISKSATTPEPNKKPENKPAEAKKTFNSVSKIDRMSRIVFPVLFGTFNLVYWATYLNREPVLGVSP
# T11 sequence (P47870 25-512 limits assumed): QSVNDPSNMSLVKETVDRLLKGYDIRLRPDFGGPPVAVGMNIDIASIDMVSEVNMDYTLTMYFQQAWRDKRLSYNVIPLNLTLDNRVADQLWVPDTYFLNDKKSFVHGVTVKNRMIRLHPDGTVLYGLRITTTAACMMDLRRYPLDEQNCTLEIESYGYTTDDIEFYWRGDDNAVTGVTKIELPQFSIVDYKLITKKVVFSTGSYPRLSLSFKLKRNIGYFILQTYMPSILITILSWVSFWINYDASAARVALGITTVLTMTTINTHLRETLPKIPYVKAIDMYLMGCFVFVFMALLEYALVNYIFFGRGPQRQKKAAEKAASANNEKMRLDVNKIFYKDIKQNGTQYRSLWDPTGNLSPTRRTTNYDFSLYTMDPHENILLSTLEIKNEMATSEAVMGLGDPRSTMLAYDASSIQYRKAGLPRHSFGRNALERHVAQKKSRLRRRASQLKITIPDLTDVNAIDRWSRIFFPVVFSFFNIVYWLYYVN
# T11 sequence (P18507 40-467 isoform P18507-1 limits assumed, stated change not applied): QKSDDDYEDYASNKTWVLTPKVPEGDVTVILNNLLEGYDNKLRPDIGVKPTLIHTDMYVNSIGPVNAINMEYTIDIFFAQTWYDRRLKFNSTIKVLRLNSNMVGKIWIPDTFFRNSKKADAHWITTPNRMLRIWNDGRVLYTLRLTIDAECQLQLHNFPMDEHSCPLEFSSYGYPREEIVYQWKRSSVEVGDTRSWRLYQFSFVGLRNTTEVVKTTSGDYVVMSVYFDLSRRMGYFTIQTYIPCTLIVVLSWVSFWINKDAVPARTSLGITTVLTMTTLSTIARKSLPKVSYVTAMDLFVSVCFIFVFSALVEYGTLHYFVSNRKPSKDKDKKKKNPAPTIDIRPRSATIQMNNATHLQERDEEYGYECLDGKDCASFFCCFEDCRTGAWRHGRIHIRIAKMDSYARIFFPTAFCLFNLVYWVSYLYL
# T10 sequence (P31644 32-462 H136R): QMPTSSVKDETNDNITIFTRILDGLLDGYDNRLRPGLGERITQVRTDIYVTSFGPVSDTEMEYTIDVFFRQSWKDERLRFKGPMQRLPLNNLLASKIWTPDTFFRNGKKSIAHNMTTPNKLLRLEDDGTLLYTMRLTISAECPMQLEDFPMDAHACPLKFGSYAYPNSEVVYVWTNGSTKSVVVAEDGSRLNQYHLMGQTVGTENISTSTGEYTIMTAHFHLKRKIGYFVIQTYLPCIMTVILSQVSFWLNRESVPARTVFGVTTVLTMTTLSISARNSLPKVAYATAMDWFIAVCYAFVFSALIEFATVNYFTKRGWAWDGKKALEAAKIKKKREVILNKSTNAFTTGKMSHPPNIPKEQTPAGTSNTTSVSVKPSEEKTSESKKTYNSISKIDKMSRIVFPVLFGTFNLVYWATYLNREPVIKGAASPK
# T10 sequence (P47870 26-474 isoform P47870-1 limits assumed, stated change not applied): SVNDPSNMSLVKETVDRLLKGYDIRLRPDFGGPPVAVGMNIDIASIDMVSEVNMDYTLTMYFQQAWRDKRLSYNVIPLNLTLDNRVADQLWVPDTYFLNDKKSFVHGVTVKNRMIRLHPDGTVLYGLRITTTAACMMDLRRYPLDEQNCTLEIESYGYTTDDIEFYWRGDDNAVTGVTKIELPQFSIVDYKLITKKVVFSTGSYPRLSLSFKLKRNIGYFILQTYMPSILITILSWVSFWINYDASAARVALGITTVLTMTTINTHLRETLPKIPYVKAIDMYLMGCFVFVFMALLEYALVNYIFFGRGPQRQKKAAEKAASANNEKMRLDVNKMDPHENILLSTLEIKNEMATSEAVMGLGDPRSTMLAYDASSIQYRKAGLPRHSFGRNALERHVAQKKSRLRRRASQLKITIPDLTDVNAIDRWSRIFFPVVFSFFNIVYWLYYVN
# T10 sequence (P18507 40-467 isoform P18507-1 limits assumed, stated change not applied): as the sequence (P18507 40-467 isoform P18507-1 limits assumed, stated change not applied) above
# T3 sequence (P31644 32-462): as the sequence (P31644 32-462 H136R) above, with R105H counted along it
# T3 sequence (P47870 26-474 isoform P47870-1 limits assumed): as the sequence (P47870 26-474 isoform P47870-1 limits assumed, stated change not applied) above
# T3 sequence (P18507 40-467 isoform P18507-1 limits assumed): as the sequence (P18507 40-467 isoform P18507-1 limits assumed, stated change not applied) above
compound,measurement,setting,value
"NCCCC(=O)O [GABA, γ‐aminobutyric acid]",Hill coefficient,α2β2γ2 GABAA receptor,1.581 ± 0.074
same,Max Current (pA),α2β2γ2 GABAA receptor,-3326 ± 356.7 pA
same,Hill coefficient,[1],1.215 ± 0.079
same,Max Current (pA),[1],-3049 ± 378.6 pA
same,Hill coefficient,α5β2γ2 GABAA receptor,1.547 ± 0.123
same,Max Current (pA),α5β2γ2 GABAA receptor,-5115 ± 315.9 pA
same,Hill coefficient,[2],1.443 ± 0.092
same,Max Current (pA),[2],-3186 ± 390.8 pA
same,Hill coefficient,[3],1.255 ± 0.097
same,Max Current (pA),[3],-3175 ± 444.3 pA
same,Hill coefficient,α1β2γ2 GABAA receptor,1.400 ± 0.102
same,Max Current (pA),α1β2γ2 GABAA receptor,-4218 ± 601.6 pA
same,Hill coefficient,[4],1.180 ± 0.072
same,Max Current (pA),[4],-3424 ± 394.5 pA
same,Hill coefficient,[5],1.796
same,Max Current (pA),[5],-1724 ± 286.1 pA
same,Hill coefficient,[6],1.444 ± 0.104
same,Max Current (pA),[6],-5007 ± 470.7 pA
Cc1ncc2n1-c1ccc(Cl)cc1C(c1ccccc1F)=NC2 [midazolam],responsiveness to midazolam potentiation,[7],abolished the ability of receptors to respond to midazolam potentiation
same,Midazolam potentiation (%),[7]; 10 nM MDZ + EC10 GABA,8.59 ± 4.39%
same,Midazolam potentiation (%),[7]; 50 nM MDZ + EC10 GABA,7.73 ± 4.67%
same,Midazolam potentiation (%),[7]; 100 nM MDZ + EC10 GABA,8.00 ± 4.85%
same,Midazolam potentiation (%),[7]; 500 nM MDZ + EC10 GABA,5.65 ± 3.99%
same,Midazolam potentiation (%),[7]; 1000 nM MDZ + EC10 GABA,8.17 ± 4.66%
same,EC50,[8],42 ± 2.86 nM
same,Midazolam potentiation (%),"[8]; 10 nM MDZ + EC10 GABA, α2(T162P)",26.45 ± 4.06%
same,Midazolam potentiation (%),"[8]; 50 nM MDZ + EC10 GABA, α2(T162P)",81.24 ± 9.43%
same,Midazolam potentiation (%),"[8]; 100 nM MDZ + EC10 GABA, α2(T162P)",129.24 ± 14.94%
same,Midazolam potentiation (%),"[8]; 500 nM MDZ + EC10 GABA, α2(T162P)",156.21 ± 15.70%
same,Midazolam potentiation (%),"[8]; 1000 nM MDZ + EC10 GABA, α2(T162P)",150.36 ± 15.00%
same,Max potentiation (%),"[8]; α2(T162P), Hill fit, midazolam 10-1000 nM + EC10 GABA",158.2 ± 15.8%
same,Hill coefficient,"[8]; α2(T162P), midazolam Hill fit",1.393 ± 0.073
